Source: patent US10398592B2, “Diagnostic methods and apparatus” (ForSight Vision4, Inc., priority 2011, dated 2019)

Experiments:
[1] = system: analytes detected in pathological aqueous samples; assay: Analytes in pathological aqueous samples pre-treatment and after intravitreal bevacizumab injection (Table 1); assay type: in vivo
Excerpt: The markers can be used to determine a course of treatment for the patient, and may be combined in many ways with the therapeutic agent as described herein. In many embodiments, the marker comprises a molecule that is a component of the eye which can diffuse through the porous structure into the reservoir structure. In many embodiments, the marker comprises a large molecule that can diffuse through the porous structure of the implanted device into the reservoir chamber. The therapeutic agent may comprise a large molecule or a small molecule that can diffuse through the porous structure, or combinations of large and small molecules. Work in relation to embodiments indicate that marker molecules having a lower molecular weight may accumulate in the implanted device more rapidly than larger molecular weight marker molecules, and that marker molecules having a molecular weight of no more than about 500 kDa can be used in many embodiments. In many embodiments the molecular weight can be smaller than 500 kDa, for example 100 kDa or less, so that the accumulation rate is increased. The molecular weight values of Table 1 can be combined in many ways to provide ranges of molecular weights of the measured marker. Alternatively or in combination, a plurality of markers of different molecular weight can be used to diagnose and treat the patient. Examples of markers and amounts similar to Table 1 can be used and are shown in Molecular Vision (Mol. Vis. 2010; 16: 2175-2184, Published online 2010 Oct. 27) available on the world wide web (at the address http://www.ncbi.nlm.nih.gov/pmc/articles/PMC2994336/table/t1/)
A ratio of pre-treatment mean concentration to post-treatment mean concentration is shown for the markers of Table 1. This ratio can be used to determine markers suitable to indicate efficacy of treatment and markers suitable for use as housekeeping genes. The markers having a ratio […] about 1.2, for example, can be suitable for use as housekeeping markers. Markers having a ratio above about 1.2 may be suitable for use as efficacy markers. In many embodiments, the one or more markers from the therapeutic device correspond to a pre/post ratio above of about 1.5, for example. Alternatively or in combination, the pre/post ratio can be less than 0.8, for example, and the marker risk may correspond to under-expression of protective factors, for example. The marker profile to diagnose the patient from a sample of the implanted device may comprise a plurality of up-regulation of pathogenic factor markers corresponding to a ratio above about 1.2 and a plurality of under-expression of protective factor markers corresponding to a ratio below about 0.8, for example.

[2] = Diffusion model of release from the therapeutic device reservoir through the porous structure
Excerpt: The release rate of therapeutic agent 110 through a porous body, such as a sintered porous metal structure or a porous glass structure, may be described by diffusion of the therapeutic agent 110 within the porous structure 150 with the channel parameter, and with an effective diffusion coefficient equal to the diffusion coefficient of the therapeutic agent 110 in the liquid that fills the reservoir multiplied by the Porosity and a Channel Parameter of the porous body: Release Rate=(DP/F)A(cR−cV)/L, where: cR=Concentration in reservoir cV=Concentration outside of the reservoir or in the vitreous D=Diffusion coefficient of the therapeutic agent in the reservoir solution P=Porosity of porous structure F=Channel parameter that may correspond to a tortuosity parameter of channels of porous structure A=Area of porous structure L=Thickness (length) of porous structure Cumulative Release=1−cR/cR0=1−exp((−DPA/FLVR)t), where t=time, Vr=reservoir volume
A model can be derived to describe the release rate as a function of time by relating the change of concentration in the reservoir 140 to the release rate described above. This model assumes a solution of therapeutic agent 110 where the concentration in the reservoir 140 is uniform. In addition, the concentration in the receiving fluid or vitreous is considered negligible (cV=0). Solving the differential equation and rearrangement yields the following equations describing the concentration in the reservoir as a function of time, t, and volume of the reservoir, VR, for release of a therapeutic agent 110 from a solution in a reservoir though a porous structure 150. cR=cR0 exp((−DPA/FLVR)t) and Cumulative Release=1−cR/cR0
The molecular weight of the stabilizer can be provided in 1k Dalton increments from about 1k Dalton to about 200k Daltons and provide in a Table having about 200 rows similar to Table 2. The parameters of Table 2 determined such as the half-life in the device, the equivalent volume, the equivalent diameter, and % in the device at the half-life of the therapeutic agent 110. The table may comprise a row for each molecular weight in 1k Dalton increments, and the % of stabilizer in the device compared with the therapeutic agent 110. The table may include columns for two half-lives of the therapeutic agent, three half-lives of the therapeutic agent, four half-lives of the therapeutic agent, and the corresponding percentage of stabilizer remaining in the device.
FIG. 104 and Table 3 show concentrations of therapeutic agent, stabilizer and the ratio of stabilizer to therapeutic agent in accordance with an exemplary embodiment, for example. The concentrations and rations can be determined by a person of ordinary skill in the art based on the teachings described herein. […] Additional concentrations of the therapeutic agent can be used, for example greater amounts of therapeutic agent.

[3] = Diffusion coefficients and equivalent size estimated from molecular weight; assay type: physicochemical; conditions: for Diff Coeff: Table 2, 37 C, estimated from molecular weight
Excerpt: If the reservoir solution is aqueous or has a viscosity similar to water, the value for the diffusion coefficient of the therapeutic agent (TA) in water at the temperature of interest may be used. […] (Molokhia et al, Exp Eye Res 2008): DTA,37C=DBSA,20C(η20C/η37C)(MWBSA/MWTA)^1/3 where MW refers to the molecular weight of either BSA or the test compound and η is the viscosity of water.
The diffusion constant of the stabilizer can be determined, for example, based on an estimate of hydrodynamic radius corresponding to the cube root of the molecular weight as described herein.
The diffusion coefficients of Table 2 can be determined based on weight for molecular weights up to about 2.5 M Daltons, and based on size above about 2.5 M Daltons.

[4] = aqueous samples after intravitreal bevacizumab injection
[5] = aqueous samples, intravitreal bevacizumab injection
[6] = assumes unit density, per molecule

Bevacizumab
Alpha-1 Antitrypsin Post-treatment mean [1, 4]: 0.0025 mg/mL
Alpha-Fetoprotein Post-treatment mean [1, 4]: 0.2790 ng/mL
Apolipoprotein A1 Post-treatment mean [1, 4]: 0.0004 mg/mL
Apolipoprotein CIII Post-treatment mean [1, 4]: 0.0259 µg/mL
Apolipoprotein H Post-treatment mean [1, 4]: 0.6400 µg/mL
Beta-2 Microglobulin Post-treatment mean [1, 4]: 0.3026 µg/mL
C Reactive Protein Post-treatment mean [1, 4]: 0.0477 µg/mL
CD40 Post-treatment mean [1, 4]: 0.0510 ng/mL
Cancer Antigen 19-9 Post-treatment mean [1, 4]: 0.2042 U/ml
Cancer Antigen 125 Post-treatment mean [1, 4]: 1.7225 U/ml
Complement 3 Post-treatment mean [1, 4]: 0.0014 mg/mL
Endothelin-1 Post-treatment mean [1, 4]: 5.2375 pg/mL
Eotaxin Post-treatment mean [1, 4]: 13.5813 pg/mL
Erythropoietin Post-treatment mean [1, 4]: 111.6125 pg/mL
FGF basic Post-treatment mean [1, 4]: 30.8900 pg/mL
Fibrinogen Post-treatment mean [1, 4]: 0.0005 mg/mL
G-CSF Post-treatment mean [1, 4]: 3.6748 pg/mL
Glutathione S-Transferase Post-treatment mean [1, 4]: 0.1544 ng/mL
Haptoglobin Post-treatment mean [1, 4]: 0.0004 mg/mL
ICAM-1 Post-treatment mean [1, 4]: 0.6971 ng/mL
IGF-1 Post-treatment mean [1, 4]: 1.4285 ng/mL
IL-6 Post-treatment mean [1, 4]: 15.2016 pg/mL
IL-7 Post-treatment mean [1, 4]: 12.3125 pg/mL
IL-8 Post-treatment mean [1, 4]: 14.9900 pg/mL
IgA Post-treatment mean [1, 4]: 0.0015 mg/mL
IgM Post-treatment mean [1, 4]: 0.0009 mg/mL
Leptin Post-treatment mean [1, 4]: 0.2131 ng/mL
MCP-1 Post-treatment mean [1, 4]: 438.3750 pg/mL
MIP-1alpha Post-treatment mean [1, 4]: 9.4175 pg/mL
MIP-1beta Post-treatment mean [1, 4]: 21.7988 pg/mL
MMP-3 Post-treatment mean [1, 4]: 0.6159 ng/mL
Prostate Specific Antigen, Free Post-treatment mean [1, 4]: 0.0092 ng/mL
Prostatic Acid Phosphatase Post-treatment mean [1, 4]: 0.0095 ng/mL
SGOT Post-treatment mean [1, 4]: 1.3488 µg/mL
SHBG Post-treatment mean [1, 4]: 0.2250 nmol/L
Serum Amyloid P Post-treatment mean [1, 4]: 0.0134 µg/mL
Stem Cell Factor Post-treatment mean [1, 4]: 19.4375 pg/mL
TIMP-1 Post-treatment mean [1, 4]: 22.3825 ng/mL
Thyroxine Binding Globulin Post-treatment mean [1, 4]: 0.3876 µg/mL
Tissue Factor Post-treatment mean [1, 4]: 0.3631 ng/mL
VEGF Post-treatment mean [1, 4]: 484.1250 pg/mL
Alpha-1 Antitrypsin Pre-treatment mean/Post-treatment mean [1, 5]: 0.9
Alpha-Fetoprotein Pre-treatment mean/Post-treatment mean [1, 5]: 0.9
Apolipoprotein A1 Pre-treatment mean/Post-treatment mean [1, 5]: 1.8
Apolipoprotein CIII Pre-treatment mean/Post-treatment mean [1, 5]: 1.6
Apolipoprotein H Pre-treatment mean/Post-treatment mean [1, 5]: 1.3
Beta-2 Microglobulin Pre-treatment mean/Post-treatment mean [1, 5]: 1.4
C Reactive Protein Pre-treatment mean/Post-treatment mean [1, 5]: 2.3
CD40 Pre-treatment mean/Post-treatment mean [1, 5]: 1.3
Cancer Antigen 19-9 Pre-treatment mean/Post-treatment mean [1, 5]: 1.4
Cancer Antigen 125 Pre-treatment mean/Post-treatment mean [1, 5]: 1.0
Complement 3 Pre-treatment mean/Post-treatment mean [1, 5]: 0.9
Endothelin-1 Pre-treatment mean/Post-treatment mean [1, 5]: 1.0
Eotaxin Pre-treatment mean/Post-treatment mean [1, 5]: 1.3
Erythropoietin Pre-treatment mean/Post-treatment mean [1, 5]: 1.1
FGF basic Pre-treatment mean/Post-treatment mean [1, 5]: 1.7
Fibrinogen Pre-treatment mean/Post-treatment mean [1, 5]: 2.2
G-CSF Pre-treatment mean/Post-treatment mean [1, 5]: 4.7
Glutathione S-Transferase Pre-treatment mean/Post-treatment mean [1, 5]: 0.9
Haptoglobin Pre-treatment mean/Post-treatment mean [1, 5]: 1.3
ICAM-1 Pre-treatment mean/Post-treatment mean [1, 5]: 1.1
IGF-1 Pre-treatment mean/Post-treatment mean [1, 5]: 1.0
IL-6 Pre-treatment mean/Post-treatment mean [1, 5]: 7.9
IL-7 Pre-treatment mean/Post-treatment mean [1, 5]: 0.9
IL-8 Pre-treatment mean/Post-treatment mean [1, 5]: 1.5
IgA Pre-treatment mean/Post-treatment mean [1, 5]: 0.9
IgM Pre-treatment mean/Post-treatment mean [1, 5]: 1.4
Leptin Pre-treatment mean/Post-treatment mean [1, 5]: 1.8
MCP-1 Pre-treatment mean/Post-treatment mean [1, 5]: 1.5
MIP-1alpha Pre-treatment mean/Post-treatment mean [1, 5]: 1.1
MIP-1beta Pre-treatment mean/Post-treatment mean [1, 5]: 1.1
MMP-3 Pre-treatment mean/Post-treatment mean [1, 5]: 1.0
Prostate Specific Antigen, Free Pre-treatment mean/Post-treatment mean [1, 5]: 1.8
Prostatic Acid Phosphatase Pre-treatment mean/Post-treatment mean [1, 5]: 2.7
SGOT Pre-treatment mean/Post-treatment mean [1, 5]: 1.3
SHBG Pre-treatment mean/Post-treatment mean [1, 5]: 2.3
Serum Amyloid P Pre-treatment mean/Post-treatment mean [1, 5]: 2.1
Stem Cell Factor Pre-treatment mean/Post-treatment mean [1, 5]: 1.0
TIMP-1 Pre-treatment mean/Post-treatment mean [1, 5]: 1.4
Thyroid Stimulating Hormone Pre-treatment mean/Post-treatment mean [1, 5]: 1.6
Thyroxine Binding Globulin Pre-treatment mean/Post-treatment mean [1, 5]: 1.6
Tissue Factor Pre-treatment mean/Post-treatment mean [1, 5]: 1.0
VEGF Pre-treatment mean/Post-treatment mean [1, 5]: 1.4
Device Half-life relative to Ranibiz. [2]: 1.46

Polysorbate 20
Diff Coeff [3]: 3.4E−06 cm^2/s
Diff Coeff ([3]; listed as polysorbate 20): ~3.4E-6 cm^2/s
Equiv volume [3, 6]: 2.0 nm^3
equivalent diameter [3, 6]: ~1.6 nm
D/(Ran D) ([3]; diffusion relative to Ranibizumab): 3.39
relative half-life in device 100 ([2]; % of ranibizumab): about 29%
relative amount remaining in therapeutic device 100 ([2]; at the half-life of ranibizumab): about 9.5%
